US20130142831A1, “COMPOUNDS FOR INFLAMMATION AND IMMUNE-RELATED USES” (Synta Pharmaceuticals Corp., priority 2004, published 2013)

System: IL-2 production
Assay: Inhibition of IL-2 production in PHA-activated Jurkat cells
Assay type: cell-based
Settings: Homo sapiens, PHA 2.5 μg/mL, 20 hours
Description: Jurkat cells were placed in a 96 well plate (0.5 million cells per well in 1% FBS medium) then test compounds of this invention were added at different concentrations. After 10 minutes, the cells were activated with PHA (final concentration 2.5 μg/mL) and incubated for 20 hours at 37° C. under CO2. The final volume was 200 μL. Following incubation, the cells were centrifuged and the supernatants collected and stored at −70° C. prior to assaying for IL-2 production. A commercial kit (IL-2 Eli-pair, Diaclone Research, Besancon, France) was used to detect production of IL-2, from which dose response curves were obtained. The IC50 value was calculated as the concentration at which. 50% of maximum IL-2 production after stimulation was inhibited versus a non-stimulation control.

SMILES	IC50 (bins given in nM) [nM]	IC50 (bins given with μM limit) [nM]
COc1ccc2c(c1)nc(C(F)(F)F)n2-c1ccc(NC(=O)c2c(F)c(F)c(F)c(F)c2F)cc1 [Compound 97, 2,3,4,5,6-Pentafluoro-N-[4-(2-trifluoromethyl-5-methoxy-benzoimidazol-1-yl)-phenyl]-benzamide]	< 100	
O=C(Nc1ccc(-n2c(C(F)(F)F)nc3cc(O)ccc32)cc1)c1cccc(F)c1F [Compound 99, 2,3-Difluoro-N-[4-(2-trifluoromethyl-5-hydroxy-benzoimidazol-1-yl)-phenyl]-benzamide]	< 100	
COc1ccc2c(c1)nc(C(F)(F)F)n2-c1ccc(NC(=O)c2cccc(C#N)c2)cc1 [Compound 101, 3-Cyano-N-[4-(2-trifluoromethyl-5-methoxy-benzoimidazol-1-yl)-phenyl]-benzamide]	< 100	
COc1ccc2c(c1)nc(C(F)(F)F)n2-c1ccc(NC(=O)c2ccccc2Br)cc1 [Compound 104, 2-Bromo-N-[4-(2-trifluoromethyl-5-methoxy-benzoimidazol-1-yl)-phenyl]-benzamide]	< 100	
COc1ccc2c(c1)nc(C(F)(F)F)n2-c1ccc(NC(=O)C2CCCCC2)cc1 [Compound 106, N-[4-(2-trifluoromethyl-5-methoxy-benzoimidazol-1-yl)-phenyl]-cyclohexanecarboxylic acid amide]	< 100	
COc1ccc2c(c1)nc(C(F)(F)F)n2-c1ccc(NC(=O)c2ccccc2[N+](=O)[O-])cc1 [Compound 107, 2-Nitro-N-[4-(2-trifluoromethyl-5-methoxy-benzoimidazol-1-yl)-phenyl]-benzamide]	< 100	
COc1ccc2c(c1)nc(C(F)(F)F)n2-c1ccc(NC(=O)c2ccc(Cl)cc2)cc1 [Compound 108, 4-Chloro-N-[4-(2-trifluoromethyl-5-methoxy-benzoimidazol-1-yl)-phenyl]-benzamide]	< 100	
COc1ccc2c(c1)nc(C(F)(F)F)n2-c1ccc(NC(=O)c2cccc(Cl)c2)cc1 [Compound 109, 3-Chloro-N-[4-(2-trifluoromethyl-5-methoxy-benzoimidazol-1-yl)-phenyl]-benzamide]	< 100	
COc1ccc2c(c1)nc(C(F)(F)F)n2-c1ccc(NC(=O)c2ccc(F)c(F)c2)cc1 [Compound 110, 3,4-Difluoro-N-[4-(2-trifluoromethyl-5-methoxy-benzoimidazol-1-yl)-phenyl]-benzamide]	< 100	
COc1ccc2c(c1)nc(C(F)(F)F)n2-c1ccc(NC(=O)c2ccccc2)cc1 [Compound 111, N-[4-(2-trifluoromethyl-5-methoxy-benzoimidazol-1-yl)-phenyl]-benzamide]	< 100	
NC(=O)c1ccc2c(c1)nc(C(F)(F)F)n2-c1ccc(NC(=O)c2cccc(F)c2F)cc1 [Compound 113, 2,3-Difluoro-N-[4-(2-trifluoromethyl-5-carbamoyl-benzoimidazol-1-yl)-phenyl]-benzamide]	< 100	
COc1ccc2c(c1)nc(C(F)(F)F)n2-c1ccc(NC(=O)c2ccccc2I)cc1 [Compound 115, 2-Iodo-N-[4-(2-trifluoromethyl-5-methoxy-benzoimidazol-1-yl)-phenyl]-benzamide]	< 100	
COc1ccc2c(c1)nc(C(F)(F)F)n2-c1ccc(NC(=O)CC(C)C)cc1 [Compound 116, 3-Methyl-N-[4-(2-trifluoromethyl-5-methoxy-benzoimidazol-1-yl)-phenyl]-butyramide]	< 100	
COc1ccc2c(c1)nc(C(F)(F)F)n2-c1ccc(NC(=O)c2cc(Cl)cc(Cl)c2)cc1 [Compound 117, 3,5-Dichloro-N-[4-(2-trifluoromethyl-5-methoxy-benzoimidazol-1-yl)-phenyl]-benzamide]	< 100	
COc1ccc2c(c1)nc(C(F)(F)F)n2-c1ccc(NC(=O)C2CCCN2C(=O)C(F)(F)F)cc1 (stereo not drawn) [Compound 121, 1-(2,2,2-Trifluoroacetyl)-N-[4-(2-trifluoromethyl-5-methoxy-benzoimidazol-1-yl)-phenyl]-pyrrolidine-2-carboxylic acid amide]		> 1000
COc1ccc2c(c1)nc(C(F)(F)F)n2-c1ccc(NC(=O)CSc2ccccc2)cc1 [Compound 124, 2-Phenylsulfanyl-N-[4-(2-trifluoromethyl-5-methoxy-benzoimidazol-1-yl)-phenyl]-acetamide]		> 1000
CCOC(=O)CCC(=O)Nc1ccc(-n2c(C(F)(F)F)nc3cc(OC)ccc32)cc1 [Compound 125, N-[4-(2-trifluoromethyl-5-methoxy-benzoimidazol-1-yl)-phenyl]-succinamic acid ethyl ester]		> 1000
COc1ccc2c(c1)nc(C(F)(F)F)n2-c1ccc(NC(=O)c2ccccc2Cl)cc1 [Compound 126, 2-Chloro-N-[4-(2-trifluoromethyl-5-methoxy-benzoimidazol-1-yl)-phenyl]-benzamide]		> 1000
COc1ccc2c(c1)nc(C(F)(F)F)n2-c1ccc(NC(=O)c2ccccc2OC)cc1 [Compound 128, 2-Methoxy-N-[4-(2-trifluoromethyl-5-methoxy-benzoimidazol-1-yl)-phenyl]-benzamide]		> 1000
COc1ccc2c(c1)nc(C(F)(F)F)n2-c1ccc(NC(=O)c2cc(C(F)(F)F)cc(C(F)(F)F)c2)cc1 [Compound 129, 3,5-Di-(trifluoromethyl)-N-[4-(2-trifluoromethyl-5-methoxy-benzoimidazol-1-yl)-phenyl]-benzamide]		> 1000
COc1ccc(OC)c(C(=O)Nc2ccc(-n3c(C(F)(F)F)nc4cc(OC)ccc43)cc2)c1 [Compound 130, 2,5-Dimethoxy-N-[4-(2-trifluoromethyl-5-methoxy-benzoimidazol-1-yl)-phenyl]-benzamide]		> 1000
COc1ccc2c(c1)nc(C(F)(F)F)n2-c1ccc(NC(=O)Cc2ccc(OC)c(OC)c2)cc1 [Compound 131, 2-(3,4-dimethoxy-phenyl)-N-[4-(2-trifluoromethyl-5-methoxy-benzoimidazol-1-yl)-phenyl]-acetamide]		> 1000
CC(=O)Oc1ccc2c(c1)nc(C(F)(F)F)n2-c1ccc(NC(=O)c2cccc(F)c2F)cc1 [Compound 132, 2,3-Difluoro-N-[4-(2-trifluoromethyl-5-acetoxy-benzoimidazol-1-yl)-phenyl]-benzamide]	< 100	

The remaining lines, values ahead:

IC50 (bins given in nM) [nM]	IC50 (bins given with μM limit) [nM]	SMILES
< 100		COC(=O)c1ccc2c(c1)nc(C(F)(F)F)n2-c1ccc(NC(=O)c2cccc(F)c2F)cc1 [Compound 96, 2-Trifluoromethyl-1-[4-(2,3-difluoro-benzoylamimo)-phenyl]-1H-benzoimidazole-5-carboxylic acid methyl ester]
< 100		COc1ccc2c(c1)nc(C(F)(F)F)n2-c1ccc(NC(=O)c2ccc(F)cc2F)cc1 [Compound 98, 2,4-Difluoro-N-[4-(2-trifluoromethyl-5-methoxy-benzoimidazol-1-yl)-phenyl]-benzamide]
< 100		COc1ccc2c(c1)nc(C(F)(F)F)n2-c1ccc(NC(=O)c2cc(F)ccc2F)cc1 [Compound 100, 2,5-Difluoro-N-[4-(2-trifluoromethyl-5-methoxy-benzoimidazol-1-yl)-phenyl]-benzamide]
< 100		COc1ccc2c(c1)nc(C(F)(F)F)n2-c1ccc(NC(=O)c2c(Cl)cccc2Cl)cc1 [Compound 102, 2,6-Dichloro-N-[4-(2-trifluoromethyl-5-methoxy-benzoimidazol-1-yl)-phenyl]-benzamide]
< 100		COc1ccc2c(c1)nc(C(F)(F)F)n2-c1ccc(NC(=O)C2CCCC2)cc1 [Compound 105, N-[4-(2-trifluoromethyl-5-methoxy-benzoimidazol-1-yl)-phenyl]-cyclopentanecarboxylic acid amide]
< 100		CC(C)Oc1ccc2c(c1)nc(C(F)(F)F)n2-c1ccc(NC(=O)c2cccc(F)c2F)cc1 [Compound 112, 2,3-Difluoro-N-[4-(2-trifluoromethyl-5-isopropoxy-benzoimidazol-1-yl)-phenyl]-benzamide]
< 100		COc1ccc2c(c1)nc(C(F)(F)F)n2-c1ccc(NC(=O)c2ccncc2)cc1 [Compound 114, N-[4-(2-trifluoromethyl-5-methoxy-benzoimidazol-1-yl)-phenyl]-isonicotinamide]
< 100		COc1ccc2c(c1)nc(C(F)(F)F)n2-c1ccc(NC(=O)c2cccc(Br)c2)cc1 [Compound 118, 3-Bromo-N-[4-(2-trifluoromethyl-5-methoxy-benzoimidazol-1-yl)-phenyl]-benzamide]
< 100		COc1ccc2c(c1)nc(C(F)(F)F)n2-c1ccc(NC(=O)c2ccc(Br)cc2)cc1 [Compound 119, 4-Bromo-N-[4-(2-trifluoromethyl-5-methoxy-benzoimidazol-1-yl)-phenyl]-benzamide]
	> 1000	COc1ccc2c(c1)nc(C(F)(F)F)n2-c1ccc(NC(=O)c2ccco2)cc1 [Compound 120, Furan-2-carboxylic acid {N-[4-(2-trifluoromethyl-5-methoxy-benzoimidazol-1-yl)-phenyl]}-amide]
	> 1000	C=CC(=O)Nc1ccc(-n2c(C(F)(F)F)nc3cc(OC)ccc32)cc1 [Compound 122, N-[4-(2-trifluoromethyl-5-methoxy-benzoimidazol-1-yl)-phenyl]-acrylamide]
	> 1000	COc1ccc2c(c1)nc(C(F)(F)F)n2-c1ccc(NC(=O)COCc2ccccc2)cc1 [Compound 123, 2-Benzyloxy-N-[4-(2-trifluoromethyl-5-methoxy-benzoimidazol-1-yl)-phenyl]-acetamide]
	> 1000	COc1ccc2c(c1)nc(C(F)(F)F)n2-c1ccc(NC(=O)c2cc(C(F)(F)F)ccc2C(F)(F)F)cc1 [Compound 127, 2,5-Di-(trifluoromethyl)-N-[4-(2-trifluoromethyl-5-methoxy-benzoimidazol-1-yl)-phenyl]-benzamide]
